Experimental data taken from publication PMC3221499, “A New Flavonoid C-Glycoside from Celtis australis L. and Celtis occidentalis L. Leaves and Potential Antioxidant and Cytotoxic Activities” (Scientia Pharmaceutica, 2011).

Experiments:
[1] = DPPH radical scavenging activity; conditions: samples at 100 μg/mL; 30 min at 30 °C; mean ± SE, n=3
Method: The ability of the extracts to scavenge free radicals was determined according to the method of Hosny, et al 2002 [24]. In a 96-well plate, 10 μL of each sample or standard dissolved in ethanol (100 μg/mL) was added to 190 μL of 316 μM/mL DPPH solution. A blank was prepared using ethanol. After incubation at 30 °C for 30 min, the absorbance of each solution was measured at 517 nm. DL-α-tocopherol and BHT were used as positive controls. […] All experiments were carried out in triplicate.

[2] = test system: FeSO4/H2O2-stimulated lipid peroxidation (MDA production) in rat tissue homogenates; experiment: FeSO4/H2O2-stimulated lipid peroxidation (MDA production, TBARS) in rat tissue homogenates; assay type: biochemical; conditions: 200 μg/mL, mean ± SE, n=3; for Inhibition (%) Brain: rat brain homogenate; for Inhibition (%) Heart: rat heart homogenate; for Inhibition (%) Liver: rat liver homogenate
Method: During aerobic incubation of the tissue homogenates, MDA released reacts with thiobarbituric acid (TBA) to give a pink colour. The capability of the samples to inhibit MDA formation is used as a measure of their antioxidant activity. […] The results were expressed as nanomoles of MDA equivalents per milligram of protein of rat (brain, heart and liver) homogenates. All measurements were done in triplicate. The capability to inhibit MDA formation was calculated using the following equation: Inhibition effects (%)=1-MDA in tissue homogenate with test extracts/MDA in tissue homogenate without test extracts×100

Structure (SMILES)	DPPH % inhibition [1] [%]	Inhibition (%) Brain [2] [%]	Inhibition (%) Heart [2] [%]	Inhibition (%) Liver [2] [%]
Cc1c(C)c2c(c(C)c1O)CC[C@@](C)(CCC[C@H](C)CCC[C@H](C)CCCC(C)C)O2 (racemic) [DL-α-tocopherol]	66.5 ± 2.75	62.90 ± 2.18	58.70 ± 1.80	71.10 ± 2.25
Cc1cc(C(C)(C)C)c(O)c(C(C)(C)C)c1 [BHT, butylated hydroxytoluene]	55.3 ± 1.50	52.48 ± 1.72	43.23 ± 1.65	53.20 ± 1.65
